Laboratory results reported in PubChem BioAssay (NCI).
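Five compound concentrations were applied to cells in 96-well plates for 48 hours; endpoints were derived by simple linear interpolation of the resulting dose-response curve. Here, GI50 denotes the concentration required for 50% inhibition of growth. Definition used: TGI = concentration required for complete inhibition of growth.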

How the values were obtained:
Assay in all cases: NCI anticancer screen, dose series, 48 h
A498 renal = tested on: A498 renal
HCC-2998 colon = tested on: HCC-2998 colon
MALME-3M melanoma = tested on: MALME-3M melanoma
MOLT-4 leukemia = tested on: MOLT-4 leukemia
NCI-H460 lung = tested on: NCI-H460 lung
NCI-H522 lung = tested on: NCI-H522 lung
OVCAR-8 ovarian = tested on: OVCAR-8 ovarian
SK-MEL-2 melanoma = tested on: SK-MEL-2 melanoma
SW-620 colon = tested on: SW-620 colon
TK-10 renal = tested on: TK-10 renal

Structure (SMILES)	GI50 (A498 renal) [µM]	TGI (A498 renal) [µM]	GI50 (HCC-2998 colon) [µM]	TGI (HCC-2998 colon) [µM]	GI50 (MALME-3M melanoma) [µM]	TGI (MALME-3M melanoma) [µM]	GI50 (MOLT-4 leukemia) [µM]	TGI (MOLT-4 leukemia) [µM]	GI50 (NCI-H460 lung) [µM]	TGI (NCI-H460 lung) [µM]	GI50 (NCI-H522 lung) [µM]	TGI (NCI-H522 lung) [µM]	GI50 (OVCAR-8 ovarian) [µM]	TGI (OVCAR-8 ovarian) [µM]	GI50 (SK-MEL-2 melanoma) [µM]	TGI (SK-MEL-2 melanoma) [µM]	GI50 (SW-620 colon) [µM]	TGI (SW-620 colon) [µM]	GI50 (TK-10 renal) [µM]	TGI (TK-10 renal) [µM]
COC(=O)[C@H](C[C@H](Cc1ccccc1)NC(=O)c1csc([C@@H](C[C@H](C(C)C)N(C)C(=O)[C@@H](NC(=O)[C@H]2CCCCN2C)C(C)C)OC(C)=O)n1)NC(=O)OCc1ccccc1	0.00112	0.0101	< 0.0009	> 5.64	< 0.0009	2.67	< 0.0009	> 9	< 0.0009	> 9	< 0.0009	0.0525	< 0.0009	> 9	< 0.0009	4.53	< 0.0009	> 9	0.11	> 9
COc1ccc(-c2n/c(=C\c3c(O)[nH]c4ccc(OC)cc34)cc3c2=Nc2ccccc2-3)cc1	11.6	25.4	2.93	10.1			2.41	5.27									2.4	6.9	2.09	3.87
COc1ccc2nc(-c3cccs3)cc(C(O)CN3CCSCC3)c2c1 (stereo not drawn)				58.9		35		56.3		45.1		45.3		57.8		36		93.7		91.8
COc1cc(C(=O)C/C(CCCC(=O)Nc2ccccc2[N+](=O)[O-])=N/NC(=O)c2cc3ccccc3cc2O)ccc1O		> 100		> 76.2		> 100		77		> 100		> 100		> 100		> 100		> 100		> 100
CC1=C(C)C(=O)c2c(cc3ccccn23)C1=O		46.1		29.9		17		> 100		31.5				61.1				35.5		55.9
CC1=C(Oc2ccccc2)C(CCC(=O)O)c2c(O)cc(Cl)c(O)c21 (stereo not drawn)		> 100		> 100				> 100		> 100		> 100		> 100		> 100		> 100		> 100
CC1(C)C(=NNC(=O)C[N+](C)(C)C)C(C)(C)C1=NNC(=O)C[N+](C)(C)C		> 100		> 100		> 100		> 100		> 100		> 100		> 100		> 100				> 100
CSc1ccc(C2OC(=O)c3ccccc32)c2ccccc12 (stereo not drawn)				> 100		> 100		> 100		> 100		> 100		> 100		> 100		> 100		
CCN(CC)c1ccc(C(=O)c2ccccc2C(=O)O)c(O)c1		> 100				> 100		> 100		> 100		> 100		> 100		> 100		> 100		> 100
Cc1ccc(-c2cn3ccnc3c(-c3ccc(Cl)cc3)n2)cc1	0.389	8.11	2.13	11.4			0.0815	> 100	0.0916	13.1	1.98	> 8.22	1.43	34.2	9.27	> 100	< 0.0217	> 61.2	0.419	24.8
O=C1CC(c2ccc(O)cc2)C2(O1)C(=O)OC(C(O)CO)C2O (stereo not drawn)		> 100				> 100		> 100						> 100		> 100		> 100		> 100
CN(C)CCNc1c2c(c(NCCN(C)C)c3[nH]ccc13)C(=O)c1ccccc1C2=O	11.3	25.1	0.393	3.28	3.3	11.9	0.199		0.462	2.87	3.3	> 100	0.532	9.21			0.385	2.97	1.57	5.14
CCCCCCCCCCC(C(=O)O)C1(C(=O)O)CCC(=O)O1 (stereo not drawn)				> 100				> 100		> 100		> 100		> 100		> 100		> 100		> 100
Cc1ccc(N=Nc2c(O)c(C(=O)O)cc3ccccc23)cc1C				> 100		> 100		> 100		> 100		> 100		> 100		> 100		> 100		> 100
COc1ccc(OC)c(/C=C2\SC(=S)NC2=O)c1					34.6	92.8	44.8	> 100	32.6	> 100	31.4	> 100	30.5	> 100	80.6	> 100	60.2	> 100	28.8	> 100
COC(=O)[C@@]1(C)CC[C@]2(C)CC[C@]3(C)C4=CC=C5C(=CC(=O)C(O)=C5C)[C@]4(C)[C@@H](O)C[C@@]3(C)[C@@H]2C1			13	25.2	4.91	16.2	3.18	20.1	13.4	25.5	8.39	20	14.8	28.4	11.2	23.2	9.27	20.2	4.77	15.7
Cc1ccc(N=Cc2ccc3c(c2)OCO3)cc1C		> 100				> 100		> 100		> 100		> 100		> 100		> 100		> 100		> 100
CC(C)[C@H]1CO[C@]2(C)[C@@H]3CN(Cc4ccccc4)C[C@@H]3C(=O)N12						> 100		> 100		> 100		> 100		> 100		> 100		> 100		> 100
O=C(/C=C/c1ccccc1)c1cc(Br)ccc1O		26.8		32.2				36.3		33.7		28.4		30.4		40.6		46.8		31.6

Structure (SMILES)	GI50 (A498 renal) [µM]	TGI (A498 renal) [µM]	GI50 (HCC-2998 colon) [µM]	TGI (HCC-2998 colon) [µM]	GI50 (MALME-3M melanoma) [µM]	TGI (MALME-3M melanoma) [µM]	GI50 (MOLT-4 leukemia) [µM]	TGI (MOLT-4 leukemia) [µM]	GI50 (NCI-H460 lung) [µM]	TGI (NCI-H460 lung) [µM]	GI50 (NCI-H522 lung) [µM]	TGI (NCI-H522 lung) [µM]	GI50 (OVCAR-8 ovarian) [µM]	TGI (OVCAR-8 ovarian) [µM]	GI50 (SK-MEL-2 melanoma) [µM]	TGI (SK-MEL-2 melanoma) [µM]	GI50 (SW-620 colon) [µM]	TGI (SW-620 colon) [µM]	GI50 (TK-10 renal) [µM]	TGI (TK-10 renal) [µM]
Nc1ccn(CCNCCn2cnc3nc(N)[nH]c(=O)c32)c(=O)n1		> 100		> 100		> 100				> 100		> 100		> 100		> 100		> 100		> 100
Cc1[nH]ccc2c1[nH]c1cc(=O)ccc12		> 100		> 100		> 100		85.9		> 100				> 100		> 100		> 100		> 100
O=C(O)/C=C\C(=O)N1C/C(=C\c2ccccc2Cl)C(=O)/C(=C/c2ccccc2Cl)C1			2.06	3.87	3.96	18.4	3.06	11.2			1.96	4.1	3.88	17	3.08	8.33			4.47	12.3
NC1C[C@H](n2cc(/C=C/Br)c(=O)[nH]c2=O)C[C@@H]1CO (stereo partly drawn)		> 100		> 100				> 100		> 100		> 100		> 100						> 100
COc1cc(OC(C)=O)cc2c(OC(C)=O)ccc(OC(C)=O)c12		> 100						> 100		> 100		> 100		> 100		> 100		> 100		> 100
O=C1/C(=C\c2c[nH]c3ccccc23)c2ccccc2N1c1c(Cl)cccc1Cl	3.09	4.86	1.7	3.12			1.5	5.13	1.66	3.37	1.81	3.56	3.26	11.2	1.94	3.65	1.9	3.56	2.17	5
Nn1c(NNC(=O)C(=O)Nc2cc(Cl)c(Cl)cc2Cl)n[nH]c1=S		> 100		> 100		> 100				> 100		> 100		> 100				> 100		> 100
CCCNC1=C(C(=O)OCC)C(=O)CO1		> 100		> 100		> 100		> 100		> 100				> 100		> 100		> 100		> 100
COc1cc2c(c(OC)c1)C1c3ccccc3NC(=O)N1CC2 (stereo not drawn)			3.31	> 100	10.4	67.8	3.99	> 100	3.7	> 100	2.97	11.8	5.01	> 100	2.85	91.4	4.68	> 100	8.98	> 100
CCCCCCCCN=C(N)c1ccc(N2CCN(c3ccc(C(N)=NCCCCCCCC)cc3)CC2)cc1			2.06	8.79			0.724	3.4	1.63	> 50	2.27	> 50	1.49	6.65	1.69	> 50	1.76	16.8	1.72	8.92
O=C(COc1ccc2c(=O)cc(-c3ccccc3)oc2c1)N1CCN(c2ccccc2)CC1				> 100		> 100		> 100		> 100		93.8		> 100		77.8		> 100		> 100
Nc1ccccc1C#C/C=C\C#Cc1cccs1			4.17	19.3	5.38	29.2	2.49	84.1	13.7	42.5	6.84	31.6	25	> 83.4	16.2	43.3	14.4	33	17.3	39.8
NCCOCCOCCNc1nc(Cc2ccccc2)nc(NCCCN2CCCC2=O)n1	> 100	> 100	> 100	> 100	> 100	> 100	> 100	> 100	> 100	> 100			> 100	> 100			> 100	> 100		
Cc1cc(N(CCC#N)CCC#N)ccc1N=Nc1cccc(C(=O)O)c1		> 100		> 100		> 100		> 100				> 100		> 100		> 100		> 100		> 100
CCCCC(CC)CN=C(N)NC(N)=NCCCCCCN=C(N)NC(N)=NCC(CC)CCCC (stereo not drawn)													2.08	5.19					4.03	> 100
COc1ccc(/C=C(/C#N)C(N)=O)cc1OC		> 100				> 100		> 100		> 100		> 100		> 100		> 100		> 100		> 100
Cc1ccccc1[P+](Cc1ccccc1)(c1ccccc1)c1ccccc1	1.46	7.2	2.06	23.2			3.58	17.6	2.23	10.7	2.09	10.5	1.92	13.2	2.67	6.65	2.62	33.3		
C=CCC[CH2][Sn]([c]1ccccc1)([c]1ccccc1)[c]1ccccc1			1.69	3.11	1.56	3.05	1.26	5.27	1.61	3.06	1.19	2.49	1.78	3.28	1.76	3.2	0.856	2.12	1.6	3.09
O=C(CN1CCOCC1)Nc1nc(-c2ccc(Cl)cc2)cs1		> 100		> 100		65.2		42.6		> 100				72.2		54.5		> 100		> 100
